Publication PMC4774911, “Biochemical Screening of Five Protein Kinases from Plasmodium falciparum against 14,000 Cell-Active Compounds” (PLoS ONE, 2016)
Where “and” joins values, the source holds several entries; their conditions need not be identical. Identical values can stand only once.

Experiments:
Test in all cases: biochemical
Parameters in all cases: endogenous in cells; host or cells: K562 cell extract; species or system K562 (extract); replicate k of n = 2 (each experiment ID is one independent experiment; two experiment IDs per compound)
Settings in all cases: read-out: KDapp
STK39 = STK39 (Homo sapiens, UniProt Q9UEW8)
PRKACB = PRKACB (Homo sapiens, UniProt P22694)
PRKCD = PRKCD (Homo sapiens, UniProt Q05655)
Chain of PRKCD (Q05655 whole entry): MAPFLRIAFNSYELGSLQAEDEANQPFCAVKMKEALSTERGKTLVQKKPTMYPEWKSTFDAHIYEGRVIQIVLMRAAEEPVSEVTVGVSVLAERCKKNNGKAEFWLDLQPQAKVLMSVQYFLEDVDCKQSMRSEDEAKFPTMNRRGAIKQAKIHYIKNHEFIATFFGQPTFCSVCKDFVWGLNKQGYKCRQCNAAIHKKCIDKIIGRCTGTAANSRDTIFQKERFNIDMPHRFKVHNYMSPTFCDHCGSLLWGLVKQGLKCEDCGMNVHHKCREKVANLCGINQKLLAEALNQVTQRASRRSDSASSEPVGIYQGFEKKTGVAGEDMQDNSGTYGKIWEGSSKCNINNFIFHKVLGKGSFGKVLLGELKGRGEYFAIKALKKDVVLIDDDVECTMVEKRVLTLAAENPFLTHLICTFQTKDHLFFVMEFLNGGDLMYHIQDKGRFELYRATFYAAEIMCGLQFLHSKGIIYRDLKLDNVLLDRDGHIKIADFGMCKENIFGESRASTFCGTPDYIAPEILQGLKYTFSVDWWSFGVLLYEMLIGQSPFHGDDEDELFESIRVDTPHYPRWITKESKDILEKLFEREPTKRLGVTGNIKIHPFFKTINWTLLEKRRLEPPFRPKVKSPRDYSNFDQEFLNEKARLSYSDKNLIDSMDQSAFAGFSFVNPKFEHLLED

MAP2K1 = MAP2K1 (Homo sapiens, UniProt Q02750)
Chain of MAP2K1 (Q02750 whole entry): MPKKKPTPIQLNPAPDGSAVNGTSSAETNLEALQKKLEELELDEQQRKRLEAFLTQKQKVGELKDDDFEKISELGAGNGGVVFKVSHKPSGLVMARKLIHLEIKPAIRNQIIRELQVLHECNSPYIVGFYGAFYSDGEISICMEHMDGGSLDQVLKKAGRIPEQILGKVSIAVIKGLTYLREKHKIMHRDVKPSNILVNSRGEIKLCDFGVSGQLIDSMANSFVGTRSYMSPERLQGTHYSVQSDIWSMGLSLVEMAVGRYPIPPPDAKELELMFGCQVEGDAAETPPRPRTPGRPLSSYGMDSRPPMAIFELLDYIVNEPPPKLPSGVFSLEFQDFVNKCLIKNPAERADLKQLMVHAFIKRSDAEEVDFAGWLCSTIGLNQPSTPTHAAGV

MAPK9 = MAPK9 (Homo sapiens, UniProt P45984)
Chain of MAPK9 (P45984 whole entry): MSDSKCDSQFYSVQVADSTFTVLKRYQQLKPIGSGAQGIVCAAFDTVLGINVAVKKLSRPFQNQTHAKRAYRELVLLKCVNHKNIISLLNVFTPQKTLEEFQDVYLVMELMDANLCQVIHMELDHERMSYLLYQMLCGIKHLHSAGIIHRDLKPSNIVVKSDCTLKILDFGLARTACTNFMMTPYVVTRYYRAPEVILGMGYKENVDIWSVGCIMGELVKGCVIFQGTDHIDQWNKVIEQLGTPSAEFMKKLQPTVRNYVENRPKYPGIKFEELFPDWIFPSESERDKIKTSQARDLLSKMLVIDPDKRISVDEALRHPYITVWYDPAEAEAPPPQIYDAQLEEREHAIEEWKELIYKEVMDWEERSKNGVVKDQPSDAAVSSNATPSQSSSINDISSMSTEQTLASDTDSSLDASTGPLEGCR

GAK = molecular target: T1, GAK (Homo sapiens, UniProt O14976)
T1 sequence (O14976 1-1311): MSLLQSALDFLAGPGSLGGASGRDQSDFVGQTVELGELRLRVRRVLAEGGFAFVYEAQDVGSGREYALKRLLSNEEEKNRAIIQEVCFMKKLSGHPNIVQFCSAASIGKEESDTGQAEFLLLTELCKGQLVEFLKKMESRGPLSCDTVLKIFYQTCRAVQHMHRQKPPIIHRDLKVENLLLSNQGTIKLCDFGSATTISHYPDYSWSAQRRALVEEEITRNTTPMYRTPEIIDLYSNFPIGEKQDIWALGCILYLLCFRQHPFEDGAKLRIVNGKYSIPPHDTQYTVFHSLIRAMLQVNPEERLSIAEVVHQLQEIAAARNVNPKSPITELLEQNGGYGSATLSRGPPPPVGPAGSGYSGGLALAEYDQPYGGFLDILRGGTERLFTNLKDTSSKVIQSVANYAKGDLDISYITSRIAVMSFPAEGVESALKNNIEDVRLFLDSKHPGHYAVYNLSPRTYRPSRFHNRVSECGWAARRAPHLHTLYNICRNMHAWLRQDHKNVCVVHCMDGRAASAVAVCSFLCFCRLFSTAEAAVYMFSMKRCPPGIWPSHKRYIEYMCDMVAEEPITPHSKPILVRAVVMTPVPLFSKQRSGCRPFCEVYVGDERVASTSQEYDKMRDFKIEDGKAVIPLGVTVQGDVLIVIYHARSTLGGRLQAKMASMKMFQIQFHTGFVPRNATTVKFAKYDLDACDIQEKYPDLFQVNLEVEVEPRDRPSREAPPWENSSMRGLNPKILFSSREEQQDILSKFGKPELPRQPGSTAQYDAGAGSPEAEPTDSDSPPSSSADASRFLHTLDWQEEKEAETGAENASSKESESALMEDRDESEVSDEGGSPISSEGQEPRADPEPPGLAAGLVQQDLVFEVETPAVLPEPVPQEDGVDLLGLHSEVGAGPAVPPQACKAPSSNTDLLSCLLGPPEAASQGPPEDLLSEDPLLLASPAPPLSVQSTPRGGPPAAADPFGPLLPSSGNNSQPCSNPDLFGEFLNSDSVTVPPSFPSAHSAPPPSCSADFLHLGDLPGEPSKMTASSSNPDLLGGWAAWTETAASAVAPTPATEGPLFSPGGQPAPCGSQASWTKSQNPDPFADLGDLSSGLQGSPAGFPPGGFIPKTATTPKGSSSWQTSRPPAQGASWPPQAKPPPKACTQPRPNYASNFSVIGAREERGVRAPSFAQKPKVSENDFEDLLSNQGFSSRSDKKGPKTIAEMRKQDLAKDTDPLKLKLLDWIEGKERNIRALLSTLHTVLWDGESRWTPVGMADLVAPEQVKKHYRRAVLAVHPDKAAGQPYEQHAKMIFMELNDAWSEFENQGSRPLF

MAP2K2 = MAP2K2 (Homo sapiens, UniProt P36507)
Chain of MAP2K2 (P36507 whole entry): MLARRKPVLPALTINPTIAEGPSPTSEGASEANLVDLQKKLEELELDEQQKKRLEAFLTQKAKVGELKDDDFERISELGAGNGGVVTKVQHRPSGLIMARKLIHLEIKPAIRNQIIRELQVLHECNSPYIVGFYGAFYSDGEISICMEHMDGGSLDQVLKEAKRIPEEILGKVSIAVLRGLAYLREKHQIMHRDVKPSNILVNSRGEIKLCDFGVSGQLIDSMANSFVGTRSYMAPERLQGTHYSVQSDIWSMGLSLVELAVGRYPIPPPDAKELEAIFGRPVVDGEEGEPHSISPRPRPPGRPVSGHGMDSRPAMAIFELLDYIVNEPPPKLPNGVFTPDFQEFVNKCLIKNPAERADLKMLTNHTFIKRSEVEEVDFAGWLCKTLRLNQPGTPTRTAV

CHEK2 = CHEK2 (Homo sapiens, UniProt O96017)
Chain of CHEK2 (O96017 whole entry): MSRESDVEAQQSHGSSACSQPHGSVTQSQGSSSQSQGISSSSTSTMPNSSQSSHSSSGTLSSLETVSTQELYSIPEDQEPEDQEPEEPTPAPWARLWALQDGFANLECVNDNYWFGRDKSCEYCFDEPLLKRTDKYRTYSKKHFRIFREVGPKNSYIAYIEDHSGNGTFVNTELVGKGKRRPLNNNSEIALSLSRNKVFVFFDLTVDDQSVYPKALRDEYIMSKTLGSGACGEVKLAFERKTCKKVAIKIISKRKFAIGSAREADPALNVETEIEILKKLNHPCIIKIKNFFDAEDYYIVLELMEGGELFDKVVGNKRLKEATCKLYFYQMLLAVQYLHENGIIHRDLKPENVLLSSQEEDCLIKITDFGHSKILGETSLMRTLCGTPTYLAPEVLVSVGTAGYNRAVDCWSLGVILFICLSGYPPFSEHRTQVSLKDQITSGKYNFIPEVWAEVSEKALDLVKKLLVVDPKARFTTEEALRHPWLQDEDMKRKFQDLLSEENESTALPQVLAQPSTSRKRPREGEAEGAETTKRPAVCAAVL

MAP3K4 = MAP3K4 (Homo sapiens, UniProt Q9Y6R4)
Chain of MAP3K4 (Q9Y6R4 whole entry): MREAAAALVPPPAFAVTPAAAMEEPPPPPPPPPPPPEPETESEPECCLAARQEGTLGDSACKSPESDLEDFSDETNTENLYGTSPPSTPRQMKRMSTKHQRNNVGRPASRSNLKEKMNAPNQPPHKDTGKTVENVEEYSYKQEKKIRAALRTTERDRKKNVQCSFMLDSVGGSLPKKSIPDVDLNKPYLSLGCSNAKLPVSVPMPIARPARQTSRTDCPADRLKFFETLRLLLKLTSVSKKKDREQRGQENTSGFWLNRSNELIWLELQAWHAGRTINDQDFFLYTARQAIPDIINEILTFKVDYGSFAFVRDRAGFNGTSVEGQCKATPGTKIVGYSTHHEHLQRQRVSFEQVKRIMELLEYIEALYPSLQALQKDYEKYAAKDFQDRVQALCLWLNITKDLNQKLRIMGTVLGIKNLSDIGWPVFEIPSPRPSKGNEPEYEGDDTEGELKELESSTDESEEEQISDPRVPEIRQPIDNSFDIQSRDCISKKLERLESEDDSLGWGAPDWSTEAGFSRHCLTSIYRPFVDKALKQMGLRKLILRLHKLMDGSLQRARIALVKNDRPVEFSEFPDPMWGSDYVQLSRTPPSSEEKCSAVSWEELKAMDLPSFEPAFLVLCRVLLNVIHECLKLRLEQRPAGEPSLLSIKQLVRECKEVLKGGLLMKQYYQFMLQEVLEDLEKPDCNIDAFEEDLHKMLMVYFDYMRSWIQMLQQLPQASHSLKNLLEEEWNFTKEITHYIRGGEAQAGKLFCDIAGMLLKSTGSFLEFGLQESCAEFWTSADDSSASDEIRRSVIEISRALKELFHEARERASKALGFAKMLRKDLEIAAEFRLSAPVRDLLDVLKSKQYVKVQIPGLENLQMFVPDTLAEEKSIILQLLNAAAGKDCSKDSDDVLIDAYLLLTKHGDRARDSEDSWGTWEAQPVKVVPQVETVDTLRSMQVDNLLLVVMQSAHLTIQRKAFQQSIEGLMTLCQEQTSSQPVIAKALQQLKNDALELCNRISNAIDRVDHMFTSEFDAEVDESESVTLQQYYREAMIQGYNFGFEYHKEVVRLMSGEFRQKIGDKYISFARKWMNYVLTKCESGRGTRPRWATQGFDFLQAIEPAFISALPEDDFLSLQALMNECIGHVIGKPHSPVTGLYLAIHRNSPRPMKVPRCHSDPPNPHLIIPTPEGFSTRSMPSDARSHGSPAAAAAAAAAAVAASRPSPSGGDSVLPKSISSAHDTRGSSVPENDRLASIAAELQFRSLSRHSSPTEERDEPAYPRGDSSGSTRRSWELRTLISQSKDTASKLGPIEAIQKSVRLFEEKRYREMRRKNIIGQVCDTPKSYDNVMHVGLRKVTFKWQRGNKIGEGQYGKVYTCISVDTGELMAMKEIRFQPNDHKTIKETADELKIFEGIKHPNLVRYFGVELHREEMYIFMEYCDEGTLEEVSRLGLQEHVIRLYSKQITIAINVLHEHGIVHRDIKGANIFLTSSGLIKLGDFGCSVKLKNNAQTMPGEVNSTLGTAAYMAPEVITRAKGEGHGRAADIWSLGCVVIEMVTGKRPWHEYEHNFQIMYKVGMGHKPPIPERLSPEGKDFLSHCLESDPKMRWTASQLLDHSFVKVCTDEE

CSNK2A1 = CSNK2A1 (Homo sapiens, UniProt P68400)
Chain of CSNK2A1 (P68400 whole entry): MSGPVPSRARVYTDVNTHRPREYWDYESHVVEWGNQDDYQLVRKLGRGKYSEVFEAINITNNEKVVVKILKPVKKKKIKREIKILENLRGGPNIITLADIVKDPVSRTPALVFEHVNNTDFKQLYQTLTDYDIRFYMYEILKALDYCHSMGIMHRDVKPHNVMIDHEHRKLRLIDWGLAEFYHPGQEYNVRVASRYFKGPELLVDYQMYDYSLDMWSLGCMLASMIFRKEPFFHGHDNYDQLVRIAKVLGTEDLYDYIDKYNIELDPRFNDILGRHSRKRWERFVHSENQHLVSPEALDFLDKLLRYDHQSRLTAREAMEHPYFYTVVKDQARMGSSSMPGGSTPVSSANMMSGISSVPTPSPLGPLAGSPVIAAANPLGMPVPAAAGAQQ

SMILES	Kd (STK39)	Kd (PRKACB)	Kd (PRKCD)	Kd (MAP2K1)	Kd (MAPK9)	Kd (GAK)	Kd (MAP2K2)	Kd (CHEK2)	Kd (MAP3K4)	Kd (CSNK2A1)
CN1CCN(c2ccc(Nc3ncc(C#N)c(Nc4ccccc4C(N)=O)n3)cc2)CC1.Cl [TCMDC-134116]	58 nM	5740 nM	685 nM	1630 nM and 1450 nM	230 nM and 209 nM	32.3 nM and 39.4 nM	727 nM and 858 nM	139 nM	19.8 nM and 25.8 nM	23.5 nM
Cl.NCC1(c2nc(-c3ccc(Cl)c(O)c3)c(-c3ccncc3)[nH]2)CCCCC1 [TCMDC-141154]		811 nM	806 nM	8760 nM	355 nM		7880 nM			
CN(C)CC(O)COc1ccc(Nc2ncc([N+](=O)[O-])c(Nc3ccccc3O)n2)cc1.O=C(O)C(F)(F)F (centres unmarked) [TCMDC-141399]	4760 nM					591 nM and 907 nM		9020 nM	426 nM	63.5 nM
